Three test systems from the supplement of paper PMC10331698 can be followed below.

Holding throughout (test): level (log10 ratio to DMSO vehicle control); higher = higher biomarker level / cell amount than vehicle control
What all share (conditions): in DMSO

Compound in test [1]: FC(F)(F)COC(OCC(F)(F)F)OCC(F)(F)F [tris(Trifluoroethoxy)methane]
The procedure:
(§1)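 BioMAP Diversity Plus panel of 12 human primary cell co-culture systems (3C, 4H, LPS, SAg, BT, BF4T, BE3C, CASM3C, HDF3CGF, KF3CT, MyoF, Mphg). Compounds were added 1 h before stimulation and left for 24 h (MyoF 48 h; BT 72 h for soluble read-outs or 6 d for IgG). Biomarkers were read by ELISA, cytotoxicity by SRB, PBMC viability and proliferation by Alamar Blue. Each well value was divided by the mean of 8 DMSO control wells on the same plate and log10 transformed; duplicate blinded samples were tested at 4 concentrations.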

Compound in test [2]: O=S(=O)(O)CCC(F)(F)C(F)(F)C(F)(F)C(F)(F)F [4:2 Fluorotelomer sulfonic acid]
As to the method: as §1

Compound in test [3]: OCC(F)(F)C(F)(F)C(F)(F)C(F)(F)C(F)(F)C(F)(F)C(F)(F)C(F)(F)C(F)(F)C(F)(F)C(F)(F)F [11:1 Fluorotelomer alcohol]
As to the method: as §1

± gives the standard deviation of the averaged measurements.

In the case of LPS:CD62E/E-Selectin, the “level (log10)” value was -0.009 ± 0.033 in test [1] (6700 nM); -0.005 in test [1] (20000 nM); -0.009 ± 0.0071 in test [1] (60000 nM); 0.027 ± 0.028 in test [2] (6700 nM); 0.027 ± 0.041 in test [2] (20000 nM); 0.0285 ± 0.066 in test [2] (60000 nM). The “level (log10)” value in test [3] (1100 nM) was determined as 0.016 ± 0.0085; in test [3] (3300 nM) it was 0.01 ± 0.0099; in test [3] (10000 nM) it was 0.015 ± 0.014.

Consider LPS:CXCL8/IL-8, for which the “level (log10)” value was -0.0245 ± 0.049 in test [1] (6700 nM); -0.0285 ± 0.022 in test [1] (20000 nM); 0.0315 ± 0.08 in test [1] (60000 nM); -0.0015 ± 0.097 in test [2] (6700 nM); 0.027 ± 0.054 in test [2] (20000 nM); 0.111 ± 0.018 in test [2] (60000 nM). Besides, the entries for the “level (log10)” value in test [3] (1100 nM), in test [3] (3300 nM) and in test [3] (10000 nM) were -0.007 ± 0.011, -0.013 ± 0.0014 and -0.0305 ± 0.039, respectively.

For BF4T:MMP-1, the “level (log10)” value was 0.006 ± 0.02 in test [1] (6700 nM); -0.007 ± 0.017 in test [1] (20000 nM); 0.0015 ± 0.00071 in test [1] (60000 nM); -0.002 ± 0.017 in test [2] (6700 nM); -0.0115 ± 0.005 in test [2] (20000 nM); 0.0055 ± 0.0092 in test [2] (60000 nM). For the same test system, the “level (log10)” value was -0.0095 ± 0.005 in test [3] (1100 nM), -0.01 in test [3] (3300 nM) and -0.0015 ± 0.016 in test [3] (10000 nM).
